Data: publication PMC8151276, “An Integrated Approach toward NanoBRET Tracers for Analysis of GPCR Ligand Engagement” (Molecules, 2021)

Legend:
Type in all cases: binding
GALR2 = biological target: T1, GALR2 (Homo sapiens, UniProt O43603); experiment: NanoBRET screen HiBiT-GALR2 in HEK293
T1 construct: purchased Promega (in-house HiBiT-GPCR construct library, NanoBRET)
T1 sequence (O43603 1-387): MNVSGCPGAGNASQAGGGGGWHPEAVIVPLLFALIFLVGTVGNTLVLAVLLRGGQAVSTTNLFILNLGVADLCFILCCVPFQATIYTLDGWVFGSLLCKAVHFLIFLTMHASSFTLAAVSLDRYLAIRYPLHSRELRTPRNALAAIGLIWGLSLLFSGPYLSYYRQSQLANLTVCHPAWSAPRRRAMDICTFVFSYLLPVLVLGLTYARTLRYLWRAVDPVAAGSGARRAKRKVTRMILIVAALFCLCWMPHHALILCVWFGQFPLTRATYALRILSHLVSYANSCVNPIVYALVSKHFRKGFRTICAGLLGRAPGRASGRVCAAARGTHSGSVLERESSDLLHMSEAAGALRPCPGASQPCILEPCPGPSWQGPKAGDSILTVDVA
Method: (§1) Each tracer candidate was screened across the entire library of HiBiT-GPCR constructs using NanoBRET as the detection modality. As depicted in Figure 4A, the specificity of interactions was evaluated through decrease in BRET due to competitive displacement of a bound tracer by excess parental compound. Each tracer was analyzed for binding to each HiBiT-GPCR fusion in the absence and in the presence of competing parental compound. Briefly, HEK293 cells were transfected with HiBiT-GPCR constructs diluted into promoterless DNA to reduce expression and maximize translocation to the cell surface. Each tracer candidate was then screened at concentrations of 1 μM and 0.1 μM across cells expressing these fusions. Cells were treated for 1.5 h with tracer either alone or in the presence of 20 μM competing parental compound (i.e., control). BRET was measured upon addition of purified LgBiT and subsequent complementation with HiBiT genetically fused to a GPCR. The specificity of interactions was assessed through a decrease in BRET signal due to competitive displacement of the bound tracer. To further gauge the robustness of these interactions, the fold response over the control (i.e., BRETtracer/BRETcontrol) was calculated. We chose a 1.5-fold response, which translates to ≥7-fold signal over noise as the minimal threshold required to score an interaction as positive. […]. Below we highlight the screening results obtained for our exemplary fluorescent tracers based on Clozapine, Amitriptyline and AZD1283.
(§2) HiBiT-GPCR DNA constructs were diluted in 10 mM Tris pH 8 to a final concentration of 0.01 μg/μL, arrayed in 96-well plates and stored at −20 °C. For transfection, HEK293 cells were suspended in Opti-MEM (without phenol red) supplemented with 2% fetal bovine serum (Seradigm) and 100 units/mL penicillin–streptomycin (Gibco) at a final concentration of 220,000 cells/mL and dispensed into white 96-well plates at 90 μL/well. Subsequent transfections and screens were carried using an Agilent Bravo Automated Liquid Handling Platform. First, the 96-well HiBiT DNA arrays were diluted 25-fold in Opti-MEM (without serum or phenol red) to a final concentration of 0.0004 μg/μL and 20 μL of the diluted DNAs were transferred into new 96-well plates. Next, promoterless carrier DNA (1 μg/μL) was diluted 25-fold (0.04 μg/μL) and then dispensed into the diluted arrays at 20 μL/well. Following brief mixing, Viafect transfection reagent (Promega) diluted 16-fold into Opti-MEM was dispensed into the plates at 40 μL/well. After mixing by pipetting, plates were incubated for 10 min on the pipetting station deck. The DNA-transfection reagent complexes were then added to plates containing cells. To facilitate the screen, 10 μL of DNA-transfection reagent complexes were added in duplicates to the top 4 and bottom 4 rows, resulting in two identical 48-well arrays per plate. Plates with transfected cells were incubated for 18–20 h at 37 °C/5% CO2. A screen of each tracer across the entire library using two different concentrations requires duplicate plates of transfected cells. Depending on the number of tracers being screened, transfections can be scaled up using the same ratios. The next day, for each tracer, four 20× screening solutions in tracer dilution buffer (Promega) were prepared: two duplicates at final concentration of 20 μM and two duplicates at a final concentration of 2 μM. A competing unmodified compound was added to one of each duplicate at a final concentration of 400 μM. The four resulting solutions were diluted 4-fold in Opti-MEM without serum or phenol red to generate 5× solutions (5 µM and 0.5 µM tracer +/− 100 μM competing compound). To screen the library, a BioTek MultiFlo FX liquid dispenser was used to dispense 22.5 µL of tracer solution to the top 4 rows and 22.5 µL tracer + competing compound solution to the 4 bottom rows. Plates were briefly mixed on an orbital shaker and incubated for 1.5 h at room temperature. […]

BDKRB1 = biological target: T2, BDKRB1 (Homo sapiens, UniProt P46663); experiment: NanoBRET screen HiBiT-BDKRB1 in HEK293
T2 construct: purchased Promega (in-house HiBiT-GPCR construct library, NanoBRET)
T2 sequence (P46663 1-353): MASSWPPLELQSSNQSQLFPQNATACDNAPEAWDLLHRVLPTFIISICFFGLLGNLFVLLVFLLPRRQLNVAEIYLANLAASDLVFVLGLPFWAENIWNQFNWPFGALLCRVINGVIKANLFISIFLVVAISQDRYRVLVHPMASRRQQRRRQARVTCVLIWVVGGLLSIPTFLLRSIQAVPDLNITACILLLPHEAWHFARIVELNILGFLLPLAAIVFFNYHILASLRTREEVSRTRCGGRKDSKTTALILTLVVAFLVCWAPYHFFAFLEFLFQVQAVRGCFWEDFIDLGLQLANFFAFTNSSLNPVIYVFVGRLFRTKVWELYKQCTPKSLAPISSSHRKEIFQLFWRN
Method: as §1, §2

ADORA1 = biological target: T3, ADORA1 (Homo sapiens, UniProt P30542); experiment: NanoBRET screen HiBiT-ADORA1 in HEK293
T3 construct: purchased Promega (in-house HiBiT-GPCR construct library, NanoBRET)
T3 sequence (P30542 1-326): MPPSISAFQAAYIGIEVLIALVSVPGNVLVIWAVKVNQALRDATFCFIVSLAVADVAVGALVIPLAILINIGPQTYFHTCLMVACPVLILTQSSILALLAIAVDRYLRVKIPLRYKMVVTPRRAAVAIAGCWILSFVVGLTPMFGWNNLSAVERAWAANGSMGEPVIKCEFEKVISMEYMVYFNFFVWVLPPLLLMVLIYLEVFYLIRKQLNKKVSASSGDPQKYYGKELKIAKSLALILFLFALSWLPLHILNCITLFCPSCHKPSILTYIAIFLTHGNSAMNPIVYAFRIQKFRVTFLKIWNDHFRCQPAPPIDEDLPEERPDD
Method: as §1, §2

GRM5 = biological target: T4, GRM5 (Homo sapiens, UniProt P41594); experiment: NanoBRET screen HiBiT-GRM5 in HEK293
T4 construct: purchased Promega (in-house HiBiT-GPCR construct library, NanoBRET)
Method: as §1, §2

T4 sequence (P41594 21-1212): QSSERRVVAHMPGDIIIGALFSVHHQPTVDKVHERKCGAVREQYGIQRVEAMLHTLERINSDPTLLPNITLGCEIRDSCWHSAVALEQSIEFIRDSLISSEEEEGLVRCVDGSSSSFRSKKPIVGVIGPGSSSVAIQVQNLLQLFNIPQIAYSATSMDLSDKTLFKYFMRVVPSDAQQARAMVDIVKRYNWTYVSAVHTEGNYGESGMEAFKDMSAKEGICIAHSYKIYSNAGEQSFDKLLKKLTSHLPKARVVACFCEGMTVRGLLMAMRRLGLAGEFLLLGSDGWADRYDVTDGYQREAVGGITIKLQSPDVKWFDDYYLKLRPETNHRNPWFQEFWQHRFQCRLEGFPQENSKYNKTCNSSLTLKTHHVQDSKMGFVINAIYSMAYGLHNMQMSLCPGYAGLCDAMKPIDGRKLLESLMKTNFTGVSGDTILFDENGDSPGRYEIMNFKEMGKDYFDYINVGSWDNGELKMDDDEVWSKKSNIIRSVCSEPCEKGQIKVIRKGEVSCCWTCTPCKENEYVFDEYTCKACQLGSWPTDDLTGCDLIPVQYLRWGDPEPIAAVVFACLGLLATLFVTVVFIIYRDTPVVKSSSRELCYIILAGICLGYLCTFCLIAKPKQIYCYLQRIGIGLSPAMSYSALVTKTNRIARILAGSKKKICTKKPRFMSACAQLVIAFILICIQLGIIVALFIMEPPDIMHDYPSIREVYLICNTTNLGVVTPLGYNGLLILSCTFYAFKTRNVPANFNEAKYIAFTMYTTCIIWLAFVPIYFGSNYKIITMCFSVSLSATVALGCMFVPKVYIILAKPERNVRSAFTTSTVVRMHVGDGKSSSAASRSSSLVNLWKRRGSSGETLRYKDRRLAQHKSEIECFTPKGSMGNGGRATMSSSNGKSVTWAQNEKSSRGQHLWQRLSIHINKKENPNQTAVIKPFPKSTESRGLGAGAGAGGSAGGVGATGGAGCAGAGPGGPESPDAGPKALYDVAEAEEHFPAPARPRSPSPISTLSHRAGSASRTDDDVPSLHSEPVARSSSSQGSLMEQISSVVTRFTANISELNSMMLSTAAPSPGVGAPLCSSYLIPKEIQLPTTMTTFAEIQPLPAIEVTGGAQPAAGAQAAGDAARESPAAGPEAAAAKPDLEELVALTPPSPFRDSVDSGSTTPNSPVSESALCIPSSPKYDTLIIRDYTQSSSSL

SMILES	NanoBRET Fold Response (GALR2; GALR2, tracer 0.1μM)	NanoBRET Fold Response (GALR2; GALR2, tracer 1μM)	NanoBRET Fold Response (BDKRB1; BDKRB1, tracer 0.1μM)	NanoBRET Fold Response (BDKRB1; BDKRB1, tracer 1μM)	NanoBRET Fold Response (ADORA1; ADORA1, tracer 0.1μM)	NanoBRET Fold Response (ADORA1; ADORA1, tracer 1μM)	NanoBRET Fold Response (GRM5; GRM5, tracer 0.1μM)	NanoBRET Fold Response (GRM5; GRM5, tracer 1μM)	other results
O=C(CCOCCOCCOCCOCCNC(=O)CCc1ccc2n1[B-](F)(F)[N+]1=C(c3ccc[nH]3)C=CC1=C2)NCCCN1CCN(C2=Nc3ccccc3Oc3ccc(Cl)cc32)CC1 [Loxapine-a-2-NB590]	1.09	1.12	1.05	1.27	1.13	1.04	1.00	1.04	–
CCCn1c(=O)c2[nH]c(-c3ccc(OCC(=O)NCCNC(=O)CCOCCNC(=O)c4ccc(CNC(=O)CCc5ccc6n5[B-](F)(F)[N+]5=C(c7ccc[nH]7)C=CC5=C6)cc4)cc3)nc2n(CCC)c1=O [XAC-3-NB590]	1.07	0.96	0.91	0.94	10.95	7.99	1.01	0.98	–
CN(C)CCC=C1c2ccccc2CCc2ccc(C(=O)NCCNC(=O)CCOCCOCCOCCOCCNC(=O)CCc3ccc4n3[B-](F)(F)[N+]3=C(c5ccc[nH]5)C=CC3=C4)cc21 [Amitriptyline-a-2-NB590]	–	–	–	–	–	–	–	–	NanoBRET Fold Response (GALR2; tracer at 0.1μM): 1.02; NanoBRET Fold Response (GALR2; tracer at 1μM): 0.99; NanoBRET Fold Response (BDKRB1; tracer at 0.1μM): 1.13; NanoBRET Fold Response (BDKRB1; tracer at 1μM): 1.04; NanoBRET Fold Response (ADORA1; tracer at 0.1μM): 1.11; NanoBRET Fold Response (ADORA1; tracer at 1μM): 1.02
COc1ccccc1N1CCN(CCCCN2C(=O)c3ccc(CNC(=O)CCOCCOCCOCCOCCNC(=O)CCc4ccc5n4[B-](F)(F)[N+]4=C(c6ccc[nH]6)C=CC4=C5)cc3C2=O)CC1 [NAN-190-2-NB590]	1.00	0.99	1.05	1.06	1.10	0.92	0.96	1.04	–
O=C(CCc1ccc2n1[B-](F)(F)[N+]1=C(c3ccc[nH]3)C=CC1=C2)NCc1ccc(C(=O)NCCOCCOCCNCC(O)COc2cccc3ccccc23)cc1 (centres unmarked) [Propranolol-3-NB590]	–	–	–	–	–	–	–	–	NanoBRET Fold Response (GALR2; GALR2, 0.1μM): 1.00; NanoBRET Fold Response (GALR2; GALR2, 1μM): 0.99; NanoBRET Fold Response (BDKRB1; BDKRB1, 0.1μM): 0.95; NanoBRET Fold Response (BDKRB1; BDKRB1, 1μM): 0.97; NanoBRET Fold Response (ADORA1; ADORA1, 0.1μM): 0.98; NanoBRET Fold Response (ADORA1; ADORA1, 1μM): 0.98; NanoBRET Fold Response (GRM5; GRM5, 0.1μM): 1.04; NanoBRET Fold Response (GRM5; GRM5, 1μM): 1.02
COc1ccccc1N1CCN(CCCCN2C(=O)c3ccc(CNC(=O)CCOCCNC(=O)c4ccc(CNC(=O)CCc5ccc6n5[B-](F)(F)[N+]5=C(c7ccc[nH]7)C=CC5=C6)cc4)cc3C2=O)CC1 [NAN-190-3-NB590]	1.03	1.00	0.84	1.05	1.07	0.89	1.05	1.15	–
O=C(CCc1ccc2n1[B-](F)(F)[N+]1=C(c3ccc[nH]3)C=CC1=C2)NCc1ccc(C(=O)NCCOCCC(=O)N[C@@H]2CC[C@@]3(O)[C@H]4Cc5ccc(O)c6c5[C@@]3(CCN4CC3CC3)[C@H]2O6)cc1 [Naltrexone-3-NB590]	1.00	0.98	1.18	1.03	0.84	1.23	1.25	1.14	–
CCOC(=O)c1cc(C#N)c(N2CCC(C(=O)NS(=O)(=O)Cc3ccccc3/C=C/C(=O)NCCNC(=O)CCc3ccc4n3[B-](F)(F)[N+]3=C(c5ccc[nH]5)C=CC3=C4)CC2)nc1C [AZD1283-1-NB590]	–	–	–	–	–	–	–	–	NanoBRET Fold Response (GALR2; GALR2, 0.1μM): 1.09; NanoBRET Fold Response (GALR2; GALR2, 1μM): 1.04; NanoBRET Fold Response (BDKRB1; BDKRB1, 0.1μM): 1.05; NanoBRET Fold Response (BDKRB1; BDKRB1, 1μM): 1.04; NanoBRET Fold Response (ADORA1; ADORA1, 0.1μM): 1.18; NanoBRET Fold Response (ADORA1; ADORA1, 1μM): 1.07; NanoBRET Fold Response (GRM5; GRM5, 0.1μM): 1.01; NanoBRET Fold Response (GRM5; GRM5, 1μM): 0.97
COc1ccc2[nH]c(-c3ccc(CNC(=O)CCOCCOCCOCCOCCNC(=O)CCc4ccc5n4[B-](F)(F)[N+]4=C(c6ccc[nH]6)C=CC4=C5)cc3)c(CCNC(C)=O)c2n1 [AzomelatoninICO9-2-NB590]	–	–	–	–	–	–	–	–	NanoBRET Fold Response (GALR2; 0.1μM tracer): 0.92; NanoBRET Fold Response (GALR2; 1μM tracer): 1.01; NanoBRET Fold Response (BDKRB1; 0.1μM tracer): 1.31; NanoBRET Fold Response (BDKRB1; 1μM tracer): 1.20; NanoBRET Fold Response (ADORA1; 0.1μM tracer): 0.91; NanoBRET Fold Response (ADORA1; 1μM tracer): 0.94; NanoBRET Fold Response (GRM5; 0.1μM tracer): 0.97; NanoBRET Fold Response (GRM5; 1μM tracer): 1.03
CN(CCC=C1c2ccccc2CCc2ccccc21)C(=O)CCOCCOCCOCCOCCNC(=O)CCc1ccc2n1[B-](F)(F)[N+]1=C(c3ccc[nH]3)C=CC1=C2 [Amitriptyline-e-2-NB590]	–	–	–	–	–	–	–	–	NanoBRET Fold Response (ADORA1; tracer at 1μM): 1.08
